In article PMC3319563 (PLoS ONE, 2012):

Assays:
AtuGSTH1-1 [1] = biological target: T1, AtuGSTH1-1 (Agrobacterium fabrum, UniProt A9CFJ9, R187A); settings: read-out: Km, (mM) (CDNB) / Km, (mM) (CuOOH); co-substrate GSH
T1 construct: gene Atu3701

AtuGSTH1-1 [2] = biological target: T2, AtuGSTH1-1 (Agrobacterium fabrum, UniProt A9CFJ9); assay: steady-state kinetics, GST assay; assay type: biochemical; settings: co-substrate GSH; 0.1 M potassium phosphate pH 6.5, 37 °C; read-out: Κm
T2 construct: gene Atu3701; homodimer by crystal symmetry
T2 sequence (A9CFJ9 1-230): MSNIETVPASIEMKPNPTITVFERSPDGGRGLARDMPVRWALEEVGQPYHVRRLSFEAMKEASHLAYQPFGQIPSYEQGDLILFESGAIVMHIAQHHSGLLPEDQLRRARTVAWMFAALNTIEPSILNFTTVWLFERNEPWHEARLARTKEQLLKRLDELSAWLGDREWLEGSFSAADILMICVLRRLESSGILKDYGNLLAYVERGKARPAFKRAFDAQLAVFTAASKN
From the text: steady-state kinetics, GST assay on AtuGSTH1-1

AtuGSTH1-1 [3] = biological target: T3, AtuGSTH1-1 (Agrobacterium fabrum, UniProt A9CFJ9, S25A); settings: read-out: Km, (mM) (CDNB) / Km, (mM) (CuOOH); co-substrate GSH
T3 construct: gene Atu3701

AtuGSTH1-1 [4] = biological target: T4, AtuGSTH1-1 (Agrobacterium fabrum, UniProt A9CFJ9, F22A); settings: read-out: Km, (mM) (CDNB) / Km, (mM) (CuOOH); co-substrate GSH
T4 construct: gene Atu3701

AtuGSTH1-1 [5] = biological target: T2, AtuGSTH1-1; assay: steady-state kinetics, thioltransferase assay; assay type: biochemical; settings: co-substrate GSH; 0.1 M potassium phosphate pH 6.5, 37 °C; read-out: Κm
From the text: steady-state kinetics, thioltransferase assay on AtuGSTH1-1

[6] = substrate: CC(C)(C)OO; assay: steady-state kinetics, GSH-dependent peroxidase assay; assay type: biochemical, Agrobacterium fabrum; settings: co-substrate GSH, 0.1 M potassium phosphate pH 6.5, 37 °C
[7] = substrate: CC(C)(OO)c1ccccc1; assay: as above; assay type: biochemical, Agrobacterium fabrum; settings: co-substrate GSH, 0.1 M potassium phosphate pH 6.5, 37 °C

`O=[N+]([O-])c1ccc(Cl)c([N+](=O)[O-])c1` [CDNB, 1-chloro-2,4-dinitrobenzene] showed a Km (AtuGSTH1-1 [1]) of 7.1 ± 0.76 mM, a Km (AtuGSTH1-1 [2]) of 1500 ± 90 µM and a Km (AtuGSTH1-1 [3]) of 1.9 ± 0.18 mM. For the same molecule, the Km (AtuGSTH1-1 [4]) was 3.2 ± 0.39 mM.

`OCCSSCCO` [HEDS] was tested, and the Km (AtuGSTH1-1 [5]) was 4100 ± 120 µM.

B1: AtuGSTH1-1 (Agrobacterium fabrum str. C58) (protein)
chain: MSNIETVPASIEMKPNPTITVFERSPDGGRGLARDMPVRWALEEVGQPYHVRRLSFEAMKEASHLAYQPFGQIPSYEQGDLILFESGAIVMHIAQHHSGLLPEDQLRRARTVAWMFAALNTIEPSILNFTTVWLFERNEPWHEARLARTKEQLLKRLDELSAWLGDREWLEGSFSAADILMICVLRRLESSGILKDYGNLLAYVERGKARPAFKRAFDAQLAVFTAASKN
notes: homodimer by crystal symmetry
B1 showed a Km [6] of 1600 ± 70 µM, a kcat [6] of 2.495 ± 0.0868 s⁻¹ and a Km [7] of 2700 ± 210 µM. It also gave a kcat [7] of 5.657 ± 0.101 s⁻¹.
